From article PMC5689168 (Biochemistry and Biophysics Reports, 2016)
“And” between values parts separate entries of the source, which are not always exact repeats. Equal values may be shown once. “Also recorded” adds a separate entry of the source. Read-outs that look alike come from different tables or passages of the source. Each block holds one molecule with its values, some of them ahead of it.

Experiments:
α1β1γ2 GABAA receptors = α1β1γ2 GABAA receptors (Rattus norvegicus, UniProt P15431+P62813); format: cell-based, rat α1, rat β1, murine γ2
α1β3γ2 GABAA receptors = α1β3γ2 GABAA receptors (UniProt P28472+P62813); format: cell-based, rat α1, human β3, murine γ2
[1] = cited from earlier work
α1β2γ2 GABAA receptors = α1β2γ2 GABAA receptors (Rattus norvegicus, UniProt P62813+P63138); format: cell-based, rat α1, rat β2, murine γ2
[2] = molecular target: α1β2(N265M)γ2 GABAA receptors (Rattus norvegicus, UniProt P62813+P63138, N289M); test: Two-electrode voltage clamp on Xenopus laevis oocytes expressing mutant α1β2; format: cell-based, rat α1, rat β2, murine γ2
5HT3A receptor = conditions: cited from earlier work
[3] = molecular target: α1β2(M286W)γ2 GABAA receptors (Rattus norvegicus, UniProt P62813+P63138, M310W); test: Two-electrode voltage clamp on Xenopus laevis oocytes expressing mutant α1β2; format: cell-based, rat α1, rat β2, murine γ2
α1β2 GABAA receptor = α1β2 GABAA receptor (Rattus norvegicus, UniProt P62813+P63138); format: cell-based, rat α1, rat β2
α1β2γ2 receptors = conditions: read-out: EC50 for potentiation; cited from earlier work

α1β3γ2 GABAA receptors, sequence (P62813 28-455): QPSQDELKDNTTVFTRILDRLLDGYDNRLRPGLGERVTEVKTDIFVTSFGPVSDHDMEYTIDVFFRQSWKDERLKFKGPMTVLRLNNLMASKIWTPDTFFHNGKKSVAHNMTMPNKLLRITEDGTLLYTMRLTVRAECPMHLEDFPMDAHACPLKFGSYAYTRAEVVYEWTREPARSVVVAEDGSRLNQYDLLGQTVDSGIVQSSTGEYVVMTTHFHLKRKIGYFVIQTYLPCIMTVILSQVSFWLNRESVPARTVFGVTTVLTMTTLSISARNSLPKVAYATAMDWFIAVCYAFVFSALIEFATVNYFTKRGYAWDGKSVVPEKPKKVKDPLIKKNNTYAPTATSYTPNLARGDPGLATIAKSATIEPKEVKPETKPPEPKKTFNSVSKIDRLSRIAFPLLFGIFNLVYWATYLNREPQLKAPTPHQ
α1β3γ2 GABAA receptors, sequence (P28472 26-473): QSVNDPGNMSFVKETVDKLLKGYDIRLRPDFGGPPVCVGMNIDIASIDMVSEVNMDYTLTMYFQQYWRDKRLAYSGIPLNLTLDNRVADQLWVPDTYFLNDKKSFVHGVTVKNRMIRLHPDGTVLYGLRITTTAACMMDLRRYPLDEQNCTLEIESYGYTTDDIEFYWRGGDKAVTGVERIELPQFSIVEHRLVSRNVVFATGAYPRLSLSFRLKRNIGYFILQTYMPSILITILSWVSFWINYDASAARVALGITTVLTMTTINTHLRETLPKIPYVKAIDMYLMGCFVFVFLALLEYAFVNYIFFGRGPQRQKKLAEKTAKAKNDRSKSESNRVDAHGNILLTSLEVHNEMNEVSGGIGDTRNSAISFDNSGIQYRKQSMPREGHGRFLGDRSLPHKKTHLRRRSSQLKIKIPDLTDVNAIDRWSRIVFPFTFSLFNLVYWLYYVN
α1β3γ2 GABAA receptors, sequence (P22723 39-474 partner): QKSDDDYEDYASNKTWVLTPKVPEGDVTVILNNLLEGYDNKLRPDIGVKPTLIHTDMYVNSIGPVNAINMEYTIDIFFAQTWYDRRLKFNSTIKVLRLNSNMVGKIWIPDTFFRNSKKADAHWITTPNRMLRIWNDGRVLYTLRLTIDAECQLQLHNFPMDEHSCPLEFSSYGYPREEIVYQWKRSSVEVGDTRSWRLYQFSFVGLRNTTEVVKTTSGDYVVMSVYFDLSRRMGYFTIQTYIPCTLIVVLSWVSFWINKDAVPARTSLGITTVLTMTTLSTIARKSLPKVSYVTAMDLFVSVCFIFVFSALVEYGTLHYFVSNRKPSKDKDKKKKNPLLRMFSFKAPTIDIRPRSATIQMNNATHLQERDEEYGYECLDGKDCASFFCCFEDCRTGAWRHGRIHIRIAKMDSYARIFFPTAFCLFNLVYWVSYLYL
α1β1γ2 GABAA receptors, sequence (P62813 28-455): as the sequence (P62813 28-455) above
α1β1γ2 GABAA receptors, sequence (P15431 26-474): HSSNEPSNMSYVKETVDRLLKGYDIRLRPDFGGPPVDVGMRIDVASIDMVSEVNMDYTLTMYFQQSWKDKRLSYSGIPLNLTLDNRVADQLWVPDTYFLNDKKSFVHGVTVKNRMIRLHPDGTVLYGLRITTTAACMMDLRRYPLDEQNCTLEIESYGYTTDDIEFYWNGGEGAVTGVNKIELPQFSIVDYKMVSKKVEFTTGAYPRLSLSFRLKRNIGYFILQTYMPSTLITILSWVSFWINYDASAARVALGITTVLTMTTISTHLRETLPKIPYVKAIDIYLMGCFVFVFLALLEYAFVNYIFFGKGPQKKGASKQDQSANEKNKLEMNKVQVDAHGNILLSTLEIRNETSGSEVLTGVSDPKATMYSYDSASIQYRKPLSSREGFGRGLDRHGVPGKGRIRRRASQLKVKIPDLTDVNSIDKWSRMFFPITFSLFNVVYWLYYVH
α1β1γ2 GABAA receptors, sequence (P22723 39-474 partner): as the sequence (P22723 39-474 partner) above
α1β2γ2 GABAA receptors, sequence (P62813 28-455): as the sequence (P62813 28-455) above
α1β2γ2 GABAA receptors, sequence (P63138 25-474 limits assumed): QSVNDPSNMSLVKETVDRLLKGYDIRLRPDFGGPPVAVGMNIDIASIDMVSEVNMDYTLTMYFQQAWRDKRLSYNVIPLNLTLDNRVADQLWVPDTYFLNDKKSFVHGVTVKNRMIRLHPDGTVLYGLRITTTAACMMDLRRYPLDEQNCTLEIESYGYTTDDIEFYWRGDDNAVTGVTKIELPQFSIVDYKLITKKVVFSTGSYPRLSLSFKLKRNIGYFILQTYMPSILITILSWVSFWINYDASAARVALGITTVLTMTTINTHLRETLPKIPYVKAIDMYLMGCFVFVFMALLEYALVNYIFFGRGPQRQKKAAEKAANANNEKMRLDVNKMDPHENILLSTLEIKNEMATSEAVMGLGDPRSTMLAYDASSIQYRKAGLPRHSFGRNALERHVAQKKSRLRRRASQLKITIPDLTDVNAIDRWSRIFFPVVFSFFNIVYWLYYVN
α1β2γ2 GABAA receptors, sequence (P22723 39-474 partner): as the sequence (P22723 39-474 partner) above
α1β2 GABAA receptor, sequence (P62813 28-455): as the sequence (P62813 28-455) above
α1β2 GABAA receptor, sequence (P63138 25-474 limits assumed): as the sequence (P63138 25-474 limits assumed) above
α1β2(M286W)γ2 GABAA receptors, sequence (P62813 28-455): as the sequence (P62813 28-455) above
α1β2(M286W)γ2 GABAA receptors, sequence (P63138 25-474 M310W limits assumed): as the sequence (P63138 25-474 limits assumed) above, with M286W counted along it
α1β2(M286W)γ2 GABAA receptors, sequence (P22723 39-474 partner): as the sequence (P22723 39-474 partner) above
α1β2(N265M)γ2 GABAA receptors, sequence (P62813 28-455): as the sequence (P62813 28-455) above
α1β2(N265M)γ2 GABAA receptors, sequence (P63138 25-474 N289M limits assumed): as the sequence (P63138 25-474 limits assumed) above, with N265M counted along it
α1β2(N265M)γ2 GABAA receptors, sequence (P22723 39-474 partner): as the sequence (P22723 39-474 partner) above

EC50 (α1β1γ2 GABAA receptors): 17.2 ± 2.64 µM
Fold decrease of GABA EC50 (α1β1γ2 GABAA receptors; α1β1γ2, 30 µM glabridin): 4.4 fold
Direct activation by 30 µM glabridin (α1β1γ2 GABAA receptors; α1β1γ2, 30 µM glabridin in the absence of GABA, normalized to GABA current): 0.14±0.08
Fold potentiation by 30 µM glabridin (α1β1γ2 GABAA receptors; α1β1γ2, 30 µM glabridin, 1 µM GABA): 5.07±1.45 fold
EC50 (α1β3γ2 GABAA receptors): 6.83 ± 3.07 µM
Fold decrease of GABA EC50 (α1β3γ2 GABAA receptors; α1β3γ2, 30 µM glabridin): 6.8 fold
Direct activation by 30 µM glabridin (α1β3γ2 GABAA receptors; α1β3γ2, 30 µM glabridin in the absence of GABA, normalized to GABA current): 0.08±0.04
Fold potentiation by 30 µM glabridin (α1β3γ2 GABAA receptors; α1β3γ2, 30 µM glabridin, 10 µM GABA): 2.63±0.42 fold
EC50 (α1β2γ2 GABAA receptors; Modulatory EC50, α1β2γ2, potentiation of current evoked by 3 µM GABA): 6 µM and 6.3 µM
Concentration at which potentiation of GABA-induced currents starts (α1β2γ2 GABAA receptors; α1β2γ2, 3 µM GABA): 1 µM
Concentration of maximal potentiation (α1β2γ2 GABAA receptors; α1β2γ2, 3 µM GABA): approximately 30 µM
Potentiating action of 30 µM glabridin in the presence of flumazenil (α1β2γ2 GABAA receptors; α1β2γ2, 3 µM GABA, 30 µM glabridin, 1 µM flumazenil): not significantly altered
Fold decrease of GABA EC50 (α1β2γ2 GABAA receptors; α1β2γ2, 30 µM glabridin): 12 fold and 12.3 fold
Direct activation by 30 µM glabridin (α1β2γ2 GABAA receptors; α1β2γ2, 30 µM glabridin in the absence of GABA, normalized to GABA current): 0.07±0.02
Fold potentiation by 30 µM glabridin (α1β2γ2 GABAA receptors; α1β2γ2, 30 µM glabridin, 3 µM GABA): 6.20±1.41 fold
Fold decrease of GABA EC50 (α1β2γ2 GABAA receptors; α1β2γ2, 30 µM glabridin, listed as Glabridin): approximately 12 fold
Direct activation, share of the maximally evoked current by saturating GABA concentrations (α1β2γ2 GABAA receptors; α1β2γ2, 100 µM glabridin in the absence of GABA, n=4): up to 17±7%
Direct activation at lower concentrations (α1β2γ2 GABAA receptors; α1β2γ2, glabridin up to 10 µM in the absence of GABA): failed to activate
Threshold concentration for direct activation (α1β2γ2 GABAA receptors; α1β2γ2, in the absence of GABA): 30 µM
Maximally induced current evoked by 1 mM GABA (α1β2γ2 GABAA receptors; α1β2γ2, with 30 µM glabridin, p=0.055, n=4): not significantly altered
EC50 [2]: 32.6 ± 1.52 µM
Fold decrease of GABA EC50 ([2]; α1β2(N265M)γ2, 30 µM glabridin): 3.5 fold
Fold decrease of GABA EC50 ([3]; 30 µM glabridin): 0.75 fold
Fold potentiation by 30 µM glabridin ([3]; 30 µM glabridin, 3 µM GABA): 1.04±0.05 fold
EC50 (α1β2 GABAA receptor): 9.63 ± 0.7 µM
Fold decrease of GABA EC50 (α1β2 GABAA receptor; α1β2, 30 µM glabridin): 1.8 fold
Direct activation by 30 µM glabridin (α1β2 GABAA receptor; α1β2, 30 µM glabridin in the absence of GABA, normalized to GABA current): 0.11±0.05
Fold potentiation by 30 µM glabridin (α1β2 GABAA receptor; α1β2, 30 µM glabridin, 3 µM GABA): 4.23±0.56 fold
Structure (SMILES): CC1(C)C=Cc2c(ccc3c2OC[C@@H](c2ccc(O)cc2O)C3)O1 [glabridin]
Crossing of the blood-brain-barrier [1]: able to cross the blood-brain-barrier
Screening for potentiation of GABA-induced currents (α1β2γ2 GABAA receptors; α1β2γ2, components of Glycyrrhiza at 10 µM, n=3–4): the only potentiator of the tested substances
Action on 5HT3A receptor channel (5HT3A receptor): blocker of the channel
Modulatory EC50 ([3]; potentiation of current evoked by 3 µM GABA): Neither a potentiating effect nor any shift; also recorded: no potentiation

Structure (SMILES): CC(C)c1cccc(C(C)C)c1O [propofol]
EC50 (α1β2γ2 receptors): ~2 µM
